In the NIST ThermoML archive (doi:10.1007/s10765-006-0056-z):

Assay: molar heat capacity at constant volume; xn = mol fraction of the nth substance listed
Details: Fluid (supercritical or subcritical phases), Isochoric Heat Capacity Apparatus

CCCCCCCCCC [decane] + O=C=O
Details	molar heat capacity at constant volume [J/K/mol]
485.62 K, Mass density=375 kg/m3, x1 = 0.178	481.74
486.19 K, Mass density=374.7 kg/m3, x1 = 0.095	337.46
486.48 K, Mass density=201.8 kg/m3, x1 = 0.095	412.09
486.76 K, Mass density=375 kg/m3, x1 = 0.178	484.88
486.96 K, Mass density=131.5 kg/m3, x1 = 0.095	529.99
486.96 K, Mass density=201.8 kg/m3, x1 = 0.095	409.43
487.15 K, Mass density=155 kg/m3, x1 = 0.095	472.85
487.15 K, Mass density=201.8 kg/m3, x1 = 0.095	398.22
487.34 K, Mass density=155 kg/m3, x1 = 0.095	461.86
487.53 K, Mass density=155 kg/m3, x1 = 0.095	453.38
487.72 K, Mass density=155 kg/m3, x1 = 0.095	442.23
487.96 K, Mass density=155 kg/m3, x1 = 0.095	446.71
488.19 K, Mass density=155 kg/m3, x1 = 0.095	447.14
488.49 K, Mass density=176.7 kg/m3, x1 = 0.095	436.9
488.58 K, Mass density=176.7 kg/m3, x1 = 0.095	427.94
488.68 K, Mass density=176.7 kg/m3, x1 = 0.095	434.18
488.82 K, Mass density=339.4 kg/m3, x1 = 0.178	500.32
488.87 K, Mass density=176.7 kg/m3, x1 = 0.095	431.72
489.06 K, Mass density=176.7 kg/m3, x1 = 0.095	425.91
489.44 K, Mass density=339.4 kg/m3, x1 = 0.178	498.78
490.01 K, Mass density=408.8 kg/m3, x1 = 0.178	466.06
490.58 K, Mass density=398.3 kg/m3, x1 = 0.095	337.25
491.54 K, Mass density=281.4 kg/m3, x1 = 0.095	350.21
493.44 K, Mass density=339.4 kg/m3, x1 = 0.178	492.82
493.44 K, Mass density=375 kg/m3, x1 = 0.178	478.92
493.63 K, Mass density=320.2 kg/m3, x1 = 0.095	344.98
494.29 K, Mass density=339.4 kg/m3, x1 = 0.178	493.86
494.39 K, Mass density=375 kg/m3, x1 = 0.178	481.74
494.76 K, Mass density=87 kg/m3, x1 = 0.095	750.57
494.95 K, Mass density=374.7 kg/m3, x1 = 0.095	342.85
495.33 K, Mass density=176.7 kg/m3, x1 = 0.095	423.94
495.52 K, Mass density=241 kg/m3, x1 = 0.095	368.51
495.52 K, Mass density=408.8 kg/m3, x1 = 0.178	468.89
496.56 K, Mass density=131.5 kg/m3, x1 = 0.095	548.39
497.42 K, Mass density=310.8 kg/m3, x1 = 0.178	516
497.51 K, Mass density=310.8 kg/m3, x1 = 0.178	512.93
497.6 K, Mass density=310.8 kg/m3, x1 = 0.178	514.22
499.87 K, Mass density=110.8 kg/m3, x1 = 0.095	615.07
499.87 K, Mass density=155 kg/m3, x1 = 0.095	463.68
500.06 K, Mass density=375 kg/m3, x1 = 0.178	479.47
500.9 K, Mass density=310.8 kg/m3, x1 = 0.178	505.18
500.9 K, Mass density=398.3 kg/m3, x1 = 0.095	339.7
501.75 K, Mass density=310.8 kg/m3, x1 = 0.178	507.27
502.88 K, Mass density=408.8 kg/m3, x1 = 0.178	473.26
503.07 K, Mass density=339.4 kg/m3, x1 = 0.178	489.49
503.82 K, Mass density=339.4 kg/m3, x1 = 0.178	492.32
504.88 K, Mass density=284.3 kg/m3, x1 = 0.178	533.78
505.5 K, Mass density=201.8 kg/m3, x1 = 0.095	397.32
505.96 K, Mass density=284.3 kg/m3, x1 = 0.178	524.24
506.25 K, Mass density=374.7 kg/m3, x1 = 0.095	343.97
506.32 K, Mass density=284.3 kg/m3, x1 = 0.178	521.66
507.56 K, Mass density=320.2 kg/m3, x1 = 0.095	346.42
508.72 K, Mass density=284.3 kg/m3, x1 = 0.178	513.42
509.65 K, Mass density=284.3 kg/m3, x1 = 0.178	513.42
512.22 K, Mass density=339.4 kg/m3, x1 = 0.178	488.69
512.4 K, Mass density=241 kg/m3, x1 = 0.095	370.11
512.96 K, Mass density=339.4 kg/m3, x1 = 0.178	489.49
513.52 K, Mass density=155 kg/m3, x1 = 0.095	469.92
513.7 K, Mass density=176.7 kg/m3, x1 = 0.095	436.2
514.1 K, Mass density=110.8 kg/m3, x1 = 0.095	628.94
515.19 K, Mass density=281.4 kg/m3, x1 = 0.095	353.36
515.37 K, Mass density=398.3 kg/m3, x1 = 0.095	347.33
515.86 K, Mass density=131.5 kg/m3, x1 = 0.095	553.72
516.11 K, Mass density=87 kg/m3, x1 = 0.095	740.97
516.76 K, Mass density=83.3 kg/m3, x1 = 0.178	975.91
517.48 K, Mass density=83.3 kg/m3, x1 = 0.178	984.15
517.59 K, Mass density=374.7 kg/m3, x1 = 0.095	348.19
517.68 K, Mass density=310.8 kg/m3, x1 = 0.178	496.69
518.51 K, Mass density=310.8 kg/m3, x1 = 0.178	499.76
519.25 K, Mass density=155 kg/m3, x1 = 0.095	471.73
520.73 K, Mass density=117.8 kg/m3, x1 = 0.178	788.7
521.28 K, Mass density=110.8 kg/m3, x1 = 0.095	622.54
522.57 K, Mass density=320.2 kg/m3, x1 = 0.095	352.88
523.12 K, Mass density=281.4 kg/m3, x1 = 0.095	355.33
523.67 K, Mass density=164.2 kg/m3, x1 = 0.178	675.66
524.03 K, Mass density=164.2 kg/m3, x1 = 0.178	667.67
524.03 K, Mass density=201.8 kg/m3, x1 = 0.095	397.1
524.22 K, Mass density=320.2 kg/m3, x1 = 0.095	351.33
524.4 K, Mass density=164.2 kg/m3, x1 = 0.178	659.98
524.77 K, Mass density=83.3 kg/m3, x1 = 0.178	982.86
526.6 K, Mass density=117.8 kg/m3, x1 = 0.178	779.17
528.43 K, Mass density=117.8 kg/m3, x1 = 0.178	775.54
529.61 K, Mass density=164.2 kg/m3, x1 = 0.178	637.53
529.71 K, Mass density=117.8 kg/m3, x1 = 0.178	768.84
530.07 K, Mass density=164.2 kg/m3, x1 = 0.178	636.24
530.25 K, Mass density=241 kg/m3, x1 = 0.095	375.44
530.62 K, Mass density=164.2 kg/m3, x1 = 0.178	631.87
530.67 K, Mass density=339.4 kg/m3, x1 = 0.178	492.82
531.4 K, Mass density=339.4 kg/m3, x1 = 0.178	493.86
532.44 K, Mass density=374.7 kg/m3, x1 = 0.095	354.69
532.99 K, Mass density=87 kg/m3, x1 = 0.095	727.63
533.17 K, Mass density=117.8 kg/m3, x1 = 0.178	758.57
533.71 K, Mass density=155 kg/m3, x1 = 0.095	467.68
534.08 K, Mass density=117.8 kg/m3, x1 = 0.178	754.94
535.31 K, Mass density=131.5 kg/m3, x1 = 0.095	565.99
535.39 K, Mass density=83.3 kg/m3, x1 = 0.178	958.14
535.89 K, Mass density=164.2 kg/m3, x1 = 0.178	631.13
536.16 K, Mass density=83.3 kg/m3, x1 = 0.178	972.28
536.98 K, Mass density=83.3 kg/m3, x1 = 0.178	973.82
536.98 K, Mass density=110.8 kg/m3, x1 = 0.095	693.49
537.7 K, Mass density=320.2 kg/m3, x1 = 0.095	358.27
538.25 K, Mass density=281.4 kg/m3, x1 = 0.095	361.63
543.48 K, Mass density=201.8 kg/m3, x1 = 0.095	402.01
543.48 K, Mass density=310.8 kg/m3, x1 = 0.178	509.05
543.84 K, Mass density=176.7 kg/m3, x1 = 0.095	450.93
544.11 K, Mass density=310.8 kg/m3, x1 = 0.178	514.46
544.38 K, Mass density=284.3 kg/m3, x1 = 0.178	517.29
546.37 K, Mass density=117.8 kg/m3, x1 = 0.178	758.81
546.63 K, Mass density=83.3 kg/m3, x1 = 0.178	971.79
547.62 K, Mass density=83.3 kg/m3, x1 = 0.178	992.89
550.12 K, Mass density=87 kg/m3, x1 = 0.095	712.69
550.12 K, Mass density=320.2 kg/m3, x1 = 0.095	360.72
550.48 K, Mass density=281.4 kg/m3, x1 = 0.095	369.42
550.84 K, Mass density=155 kg/m3, x1 = 0.095	462.13
554.06 K, Mass density=164.2 kg/m3, x1 = 0.178	623.38
556.37 K, Mass density=131.5 kg/m3, x1 = 0.095	553.72
556.91 K, Mass density=83.3 kg/m3, x1 = 0.178	997.75
559.75 K, Mass density=241 kg/m3, x1 = 0.095	388.83
560.29 K, Mass density=281.4 kg/m3, x1 = 0.095	373.42
561.17 K, Mass density=176.7 kg/m3, x1 = 0.095	448.69
561.35 K, Mass density=320.2 kg/m3, x1 = 0.095	369.84
568.43 K, Mass density=241 kg/m3, x1 = 0.095	393.53
